How the values were obtained:
[1] = target: 5-hydroxytryptamine 1D receptor (Bos taurus, UniProt Q8MI13)
[2] = target: T1, Alpha-2A adrenergic receptor (Bos taurus, UniProt Q28838)
T1 sequence (Q28838 whole entry): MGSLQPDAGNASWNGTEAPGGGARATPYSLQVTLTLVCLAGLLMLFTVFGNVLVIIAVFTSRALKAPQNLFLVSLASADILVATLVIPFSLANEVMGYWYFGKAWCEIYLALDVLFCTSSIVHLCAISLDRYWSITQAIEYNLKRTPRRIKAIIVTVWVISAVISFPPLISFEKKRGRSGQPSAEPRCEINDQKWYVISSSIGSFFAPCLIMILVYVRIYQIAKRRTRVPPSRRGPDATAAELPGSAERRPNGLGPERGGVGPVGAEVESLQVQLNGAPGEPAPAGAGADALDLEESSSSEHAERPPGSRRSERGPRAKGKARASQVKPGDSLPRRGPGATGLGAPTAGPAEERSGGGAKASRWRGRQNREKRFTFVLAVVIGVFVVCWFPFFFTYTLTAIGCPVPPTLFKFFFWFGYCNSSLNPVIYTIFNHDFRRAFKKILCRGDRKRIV

[3] = target: Mu-type opioid receptor (Rattus norvegicus, UniProt P33535)
[4] = target: 5-hydroxytryptamine receptor 2A (Rattus norvegicus, UniProt P14842)
[5] = target: T2, 5-hydroxytryptamine receptor 2C (Sus scrofa, UniProt G7ZKZ7)
T2 sequence (G7ZKZ7 whole entry): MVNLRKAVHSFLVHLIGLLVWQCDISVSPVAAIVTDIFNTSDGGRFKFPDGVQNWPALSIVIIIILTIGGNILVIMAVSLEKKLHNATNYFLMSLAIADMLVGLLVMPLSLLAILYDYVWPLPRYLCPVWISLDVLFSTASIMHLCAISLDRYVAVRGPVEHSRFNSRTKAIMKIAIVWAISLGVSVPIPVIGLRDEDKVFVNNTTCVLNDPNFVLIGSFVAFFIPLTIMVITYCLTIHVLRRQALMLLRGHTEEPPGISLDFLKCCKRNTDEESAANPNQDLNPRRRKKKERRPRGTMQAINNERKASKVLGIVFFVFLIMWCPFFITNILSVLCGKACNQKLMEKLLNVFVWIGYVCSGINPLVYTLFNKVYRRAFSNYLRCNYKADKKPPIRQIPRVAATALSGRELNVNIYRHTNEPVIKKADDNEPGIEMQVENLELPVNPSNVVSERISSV

[6] = target: T3, Alpha-1A adrenergic receptor (Bos taurus, UniProt P18130)
T3 sequence (P18130 whole entry): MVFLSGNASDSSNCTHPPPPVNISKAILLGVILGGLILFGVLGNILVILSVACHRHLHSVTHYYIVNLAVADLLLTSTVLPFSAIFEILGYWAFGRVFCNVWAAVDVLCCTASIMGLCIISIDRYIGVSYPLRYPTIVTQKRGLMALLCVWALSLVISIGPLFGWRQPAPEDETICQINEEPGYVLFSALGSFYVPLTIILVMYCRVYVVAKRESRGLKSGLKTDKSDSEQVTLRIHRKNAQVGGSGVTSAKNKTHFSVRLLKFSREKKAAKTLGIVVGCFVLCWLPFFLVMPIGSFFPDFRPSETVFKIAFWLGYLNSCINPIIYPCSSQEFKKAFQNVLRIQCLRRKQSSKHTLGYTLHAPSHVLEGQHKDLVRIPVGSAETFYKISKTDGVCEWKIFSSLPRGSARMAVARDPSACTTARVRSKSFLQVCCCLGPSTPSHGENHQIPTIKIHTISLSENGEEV

Sequence of 5-hydroxytryptamine receptor 2A (P14842 whole entry): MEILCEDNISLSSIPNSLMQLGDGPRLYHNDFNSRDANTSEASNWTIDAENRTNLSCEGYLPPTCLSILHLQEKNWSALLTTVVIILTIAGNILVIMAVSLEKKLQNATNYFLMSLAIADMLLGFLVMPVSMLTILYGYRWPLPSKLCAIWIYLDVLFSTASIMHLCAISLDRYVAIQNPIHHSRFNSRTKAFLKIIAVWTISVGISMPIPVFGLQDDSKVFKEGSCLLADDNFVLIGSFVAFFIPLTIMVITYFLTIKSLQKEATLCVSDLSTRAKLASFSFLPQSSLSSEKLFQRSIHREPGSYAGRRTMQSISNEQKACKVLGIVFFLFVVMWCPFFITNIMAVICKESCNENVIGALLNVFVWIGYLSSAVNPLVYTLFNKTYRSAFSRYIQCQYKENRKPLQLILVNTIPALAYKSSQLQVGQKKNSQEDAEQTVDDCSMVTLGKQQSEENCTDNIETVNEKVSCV
Sequence of Mu-type opioid receptor (P33535 whole entry): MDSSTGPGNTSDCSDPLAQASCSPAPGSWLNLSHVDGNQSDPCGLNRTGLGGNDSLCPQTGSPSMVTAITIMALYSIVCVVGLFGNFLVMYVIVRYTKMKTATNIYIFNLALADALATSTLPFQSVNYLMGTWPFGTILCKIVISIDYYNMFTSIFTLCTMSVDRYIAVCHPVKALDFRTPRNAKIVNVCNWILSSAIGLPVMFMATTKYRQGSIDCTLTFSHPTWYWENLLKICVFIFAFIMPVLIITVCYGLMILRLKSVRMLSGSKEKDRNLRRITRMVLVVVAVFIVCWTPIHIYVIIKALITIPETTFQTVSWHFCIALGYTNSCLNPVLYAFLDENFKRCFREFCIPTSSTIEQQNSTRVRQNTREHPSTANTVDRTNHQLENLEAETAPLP
Sequence of 5-hydroxytryptamine 1D receptor (Q8MI13 whole entry): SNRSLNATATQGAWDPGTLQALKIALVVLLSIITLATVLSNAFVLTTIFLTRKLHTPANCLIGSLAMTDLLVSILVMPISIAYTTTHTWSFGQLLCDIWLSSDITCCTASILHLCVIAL

Ki [1]: 2.51 µM
Ki [2]: > 10 µM
Ki [3]: > 10 µM
Ki [4]: > 10 µM
Ki [5]: 3.98 µM
Ki [6]: 6.31 µM
Compound: CCN(CC)CCOC(=O)c1cc(Cl)c(N)cc1OC [SDZ-205557]

From BindingDB's records for doi:10.1007/bf00176615 (Sandoz Pharma, 1992)
